Counter-ions that a name gives are not always drawn.
Columns and labels:
Type in all cases: physicochemical
[1] = Dynamic vapor sorption (DVS) hygroscopicity
Description: In this application, dynamic moisture adsorption analysis (DVS) data and isothermal adsorption analysis data were obtained using a TA Instruments Q5000 TGA; parameters are as follows: temperature: 25°C; relative humidity range: 0%RH-80%RH; dm/dt =0.001%/min; equilibration time: 90min; gas: N2; sample pan: platinum pan.

[2] = Crystal form before and after the tableting process (XRPD)
From the text: (§1) Following the formulation in Table 6, API, lactose hydrate, polyvinylpyrrolidone, hydroxypropyl cellulose, microcrystalline cellulose and magnesium stearate were mixed and compressed to obtain a tablet core. Subsequently, the tablet cores were coated with a solution/suspension for film coating. Table 6 Tablet formulations

[3] = Stability of the crystal form in tablets (XRPD before and after storage); conditions: 25°C/60% RH
Description: as §1
The tablets containg Form 2 of tolebrutinib monohydrochloride Form 2 tablets and Form 1 of tolebrutinib monohydrochloride were placed at 25°C/60% RH for 14 days, respectively. XRPD tests were performed before and after storage. The XRPD comparison plots before and after storage are shown in FIG. 26 and FIG. 27, respectively.

[4] = Stability study of the solid forms under long-term, accelerated, light and oxidation conditions (HPLC and XRPD); conditions: for Purity after / Purity after placing: HPLC; for Purity after: initial purity 99.50%; for Sample after placing / crystal form after storage: XRPD; for Purity after placing: initial purity 99.46%
Description: In this application, X-ray powder diffraction (XRPD) data were collected using a BrukerD8 Advance diffractometer; parameters are as follows: Cu radiation; wavelength: 1.54Å; Current voltage: 40KV, 40mA; Scan range: 3 to 40°2θ.
In this application, the HPLC parameters for chemical stability and solubility are as follows:
An appropriate amount of Form 2 of tolebrutinib monohydrochloride prepared in example 2-1 of this application was placed under long-term (25°C/60% RH/open), accelerated (40°C/75% RH/open), light (25°C/4500lx/closed), and oxidation (in a urea peroxide atmosphere) conditions. Table 1 Stability of Form 2 of tolebrutinib monohydrochloride
An appropriate amount of tolebrutinib monohydrochloride Form1 sample prepared in Example 3-1 of this application was taken and placed under long-term (25°C/60% RH/open) and accelerated (40°C/75% RH/open) conditions, HPLC and XRPD testing were regularly conducted. Table 2 Stability of Form 1 of tolebrutinib monohydrochloride

[5] = Solubility in water (supersaturated solution, content by HPLC); conditions: for Solubility: 2 hours, monohydrochloride
From the text: In this application, the HPLC parameters for chemical stability and solubility are as follows: […]

[6] = Compressibility study (tablet compression, hardness, tensile strength); conditions: for hardness: radial breaking force, tablet hardness tester, main pressure 1.8 KN; for diameters / thicknesses: tablet, Φ7.5mm punch, mean main pressure 1.8 KN
Description: The tablet compression was conducted using a Tianxiang rotary tablet press. A circular punch with a diameter of 7.5 mm (Φ7.5mm), a filling depth of 17.9 mm and a mean main pressure of 1.8 KN were used. The tablets' radial breaking force (hardness, H) was measured using a tablet hardness tester. The tablets' diameter (D) and thickness (L) were measured using a vernier caliper. The tensile strength (T) of the powder was calculated using the formula T=2H/πDL*9.8. The results are shown in Table 5: Table 5 Compressibility of Form 2 of tolebrutinib monohydrochloride and Form 1 of tolebrutinib monohydrochloride

[7] = Stability study of the solid forms under long-term, accelerated, light and oxidation conditions (HPLC and XRPD); conditions: long-term (25°C/60%RH) and accelerated (40°C/75%RH) conditions for 14 days; XRPD
[8] = light (25°C/4500lx/closed) and oxidation (in a urea peroxide atmosphere) conditions
[9] = light, 25°C/45001x/closed, 14 days
[10] = long-term (25°C/60%RH) and accelerated (40°C/75%RH) conditions for 14 days
[11] = oxidation, in a urea peroxide atmosphere, 14 days
[12] = listed as Form 2 of monohydrochloride
[13] = listed as Form 1 of monohydrochloride

C=CC(=O)N1CCC[C@@H](n2c(=O)n(-c3ccc(Oc4ccccc4)cc3)c3c(N)nccc32)C1 [Form 2 of tolebrutinib monohydrochloride, tolebrutinib monohydrochloride]
crystal form before and after DVS ([1]; XRPD before and after DVS): remained unchanged
crystal form before and after the tableting process [2]: remained unchanged
time crystal form remains stable in tablets / formulation with excipients [3]: at least 14 days
Purity after ([4]; 25°C/60%RH/open, 14 days): 99.26%
Sample after placing ([4]; 25°C/60%RH/open, 14 days): Form 2 of monohydrochloride
Purity after ([4]; 40°C/75%RH/open, 14 days): 99.30%
Sample after placing ([4]; 40°C/75%RH/open, 14 days): Form 2 of monohydrochloride
time remaining stable [4, 8]: at least 14 days
Purity after [4, 9]: 99.35%
Sample after placing [4, 9]: Form 2 of monohydrochloride
time remaining stable ([4]; long-term (25°C/60% RH/open) and accelerated (40°C/75% RH/open) conditions, listed as Form 2 of monohydrochloride, monohydrochloride): at least 14 days
crystal form after storage [4, 10]: remains unchanged
Purity after [4, 11]: 99.07%
Sample after placing [4, 11]: Form 2 of monohydrochloride
solubility at 2 hours ([5]; water, thermodynamic from solid): ~7000 µg/mL
tensile strength ([6]; calculated with T=2H/πDL*9.8, listed as Form 2 of monohydrochloride): 1.0 MPa
hardness [6, 12]: 5.33 kg
diameters [6, 12]: 7.50 mm
thicknesses [6, 12]: 4.23 mm

C=CC(=O)N1CCCC(n2c(=O)n(-c3ccc(Oc4ccccc4)cc3)c3c(N)nccc32)C1.O=C(O)C=CC(=O)O (centres unmarked) [maleate Form 1, tolebrutinib maleate]
crystal form after storage [7]: remains unchanged
crystal form after storage [4, 10]: remained the same crystalline form

C=CC(=O)N1CCC[C@@H](n2c(=O)n(-c3ccc(Oc4ccccc4)cc3)c3c(N)nccc32)C1 [Form 1 of tolebrutinib monohydrochloride, tolebrutinib monohydrochloride]
DVS weight change ([1]; between 20% RH to 80% RH at 25 °C): about 1.2%
weight gain (hygroscopicity) ([1]; humidity range of 0%RH to 80%RH): ~0.9%
crystal form before and after the tableting process [2]: remained unchanged
time crystal form remains stable in tablets / formulation with excipients [3]: at least 14 days
Purity after placing ([4]; 25°C/60%RH/open, 10 months): 99.37%
Sample after placing ([4]; 25°C/60%RH/open, 10 months): Form 1 of monohydrochloride
Purity after placing ([4]; 40°C/75%RH/open, 10 months): 98.63%
Sample after placing ([4]; 40°C/75%RH/open, 10 months): Form 1 of monohydrochloride
time remaining stable [4, 8]: at least 14 days
time remaining stable ([4]; long-term (25°C/60% RH/open) and accelerated (40°C/75% RH/open) conditions, monohydrochloride): at least 10 months
crystal form after storage ([4]; long-term and accelerated conditions for 10 months): remains unchanged
Solubility ([5]; listed as Form 1 of the monohydrochloride salt of tolebrutinib): approximately 8.3 mg/mL
Solubility [5]: 8260 µg/mL
tensile strength ([6]; calculated with T=2H/πDL*9.8, listed as Form 1 of monohydrochloride): 1.2 MPa
hardness [6, 13]: 6.16 kg
diameters [6, 13]: 7.49 mm
thicknesses [6, 13]: 4.19 mm

— patent EP4342468A1, “TOLEBRUTINIB SALT AND CRYSTAL FORM THEREOF, PREPARATION METHOD THEREFOR, PHARMACEUTICAL COMPOSITION THEREOF, AND USE THEREOF” (Hangzhou Solipharma Co., Ltd., priority 2021, dated 2022)
